Results reported in patent US7138423B2, “Arylpyrrolidine derivatives as NK-1 /SSRI antagonists” (Bristol-Myers Squibb Company, priority 2004, dated 2006).
Counter-ions that a name gives are not always drawn.

What was measured:
[1] = target: T1, neurokinin-1 (NK-1) receptor (Homo sapiens, UniProt P25103); assay: NK-1 binding, [125I] Substance P competition, U373 cell membranes; conditions: for IC50: U373 membranes, Bolton Hunter [125I] Substance P displacement; for activity for NK-1: summary statement referring to Table 1
T1 construct: a human glioblastoma-astrocytoma cell line that endogenously expresses the neurokinin-1 (NK-1) receptor; endogenous in cells; host or cells: U373 human glioblastoma-astrocytoma cells (membranes)
Protocol: U373 cells, a human glioblastoma-astrocytoma cell line that endogenously expresses the neurokinin-1 (NK-1) receptor, were grown in a monolayer culture at 37° C. in 5% CO2 and fed with Minimum Essential Medium (MEM) supplemented with 10% fetal bovine serum. Membranes were prepared as follows: Cells were washed twice with ice-cold phosphate-buffered saline (pH 7.4) and then incubated for 5 to 10 minutes with ice-cold 10 mM Tris buffer (pH 7.4) containing 5 mM EDTA. Cells were removed from plates, homogenized, and centrifuged at 32,000×g for 20 minutes. The resulting supernatant was discarded, and the pellet resuspended by homogenization in 50 mM Tris buffer (pH 7.4) containing 1 mM EDTA and centrifuged at 32,000×g for 20 minutes. The resulting supernatant was discarded, and the pellet resuspended by homogenization in NK-1 binding assay buffer (50 mM Tris-HCL (pH 7.4), 3 mM MnCl2, 200 μg/ml BSA, 5 μg/ml chymostatin, 40 μg/ml bacitracin and 4 μg/ml leupeptin).
On the day of an experiment the membrane preparation was thawed, homogenized and diluted with NK-1 binding assay buffer to the appropriate concentration. Competition binding assays were performed in 96 well plate format by incubating membranes (5–10 ug/well) with Bolton Hunter labeled [^125I] Substance P, at a concentration of […], and concentrations of drugs ranging from 10000 to 0.01 nM. Samples were incubated for 30 min at 20° C. then filtered through GF/B glass fiber filters (pretreated with 1% polyethyleneimine and 0.3% Triton X-100) using a Brandel cell harvester. The filters were then washed with 10 ml ice cold 50 mM Tris-HCL (pH 7.4) containing 3 mM MgCl2. Non-specific was defined in the presence of 2 μM L-733,060 (a non-peptide NK-1 antagonist). Amount of radioligand bound in the presence and absence of competitor was analyzed by plotting (−)log drug concentration versus the amount of radioligand specifically bound. The midpoint of the displacement curve (IC50, nM), signifies the potency. Ki values were calculated using the method of Cheng and Prusoff [Cheng, Y.-C. and Prusoff, W. H., Biochemical Pharmacology, Vol. 22, pp. 3099–3108, Pergamon Press (1973)].

[2] = target: T2, human serotonin transporters (Homo sapiens, UniProt P31645); assay: Serotonin transporter binding assay, [3H]-citalopram, HEK-hSERT membranes; conditions: for IC50: HEK-hSERT membranes, 1 nM [3H]-citalopram displacement, read-out: SERT IC50; for activity for SERT: summary statement referring to Table 1
T2 construct: expressed in transfected cells; host or cells: HEK-293 cells stably expressing hSERT (G418 selection), membranes
Protocol: Serotonin Transporter Binding Assay
HEK-293 cells that stably express human serotonin transporters (HEK-hSERT cells) were grown at 37° C. in 5% CO2 as a monolayer in medium consisting of EMEM supplemented with 10% fetal bovine serum and G418 sulfate (500 μg/ml). To prepare membranes for radioligand binding experiments, cells were rinsed twice with phosphate-buffered saline (138 mM NaCl, 4.1 mM KCl, 5.1 mM Na2PO4, 1.5 mM […], 11.1 mM glucose, pH 7.4). Cells were transferred from plates to polypropylene tubes (16×100 mm), centrifuged at 1,200×g for 5 min and were frozen at −80° C. until assay. Following centrifugation, pellets were resuspended by homogenization in buffer consisting of 50 mM Tris (pH 7.7 at 25° C.), 120 mM NaCl and 5 mM KCl and then centrifuged at 32,000×g for 10 min. Following centrifugation, supernatants were discarded and pellets were resuspended in buffer consisting of 50 mM Tris (pH 7.4 at 25° C.), 150 mM NaCl and 5 mM KCl. Membrane homogenates (200 μl/plate) were incubated with 1 nM [^3H]-citalopram (specific activity=85 Ci/mmol) and increasing concentrations of test compounds for 1 hr at 25° C. in a total volume of 250 μl. The assay buffer consisted of 50 mM Tris (pH 7.4 at 25° C.), 120 mM NaCl and 5 mM KCl (pH 7.4 with conc. HCl). Plates were incubated for 1 hr at 25° C., then filtered through 0.5% PEI treated Whatman GF/B filters using a Brandel cell harvester. Filters were washed three times with 3 ml of ice-cold Tris wash buffer. Non-specific binding was defined with 10 μM fluoxetine. Amount of radioligand bound in the presence and absence of competitor was analyzed by plotting (−)log drug concentration versus the amount of radioligand specifically bound. The midpoint of the displacement curve (IC50, nM), signifies the potency. Ki values were calculated using the method of Cheng and Prusoff [Cheng, Y.-C. and Prusoff, W. H., Biochemical Pharmacology, Vol. 22, pp. 3099–3108, Pergamon Press (1973)].

T2 sequence (P31645 whole entry): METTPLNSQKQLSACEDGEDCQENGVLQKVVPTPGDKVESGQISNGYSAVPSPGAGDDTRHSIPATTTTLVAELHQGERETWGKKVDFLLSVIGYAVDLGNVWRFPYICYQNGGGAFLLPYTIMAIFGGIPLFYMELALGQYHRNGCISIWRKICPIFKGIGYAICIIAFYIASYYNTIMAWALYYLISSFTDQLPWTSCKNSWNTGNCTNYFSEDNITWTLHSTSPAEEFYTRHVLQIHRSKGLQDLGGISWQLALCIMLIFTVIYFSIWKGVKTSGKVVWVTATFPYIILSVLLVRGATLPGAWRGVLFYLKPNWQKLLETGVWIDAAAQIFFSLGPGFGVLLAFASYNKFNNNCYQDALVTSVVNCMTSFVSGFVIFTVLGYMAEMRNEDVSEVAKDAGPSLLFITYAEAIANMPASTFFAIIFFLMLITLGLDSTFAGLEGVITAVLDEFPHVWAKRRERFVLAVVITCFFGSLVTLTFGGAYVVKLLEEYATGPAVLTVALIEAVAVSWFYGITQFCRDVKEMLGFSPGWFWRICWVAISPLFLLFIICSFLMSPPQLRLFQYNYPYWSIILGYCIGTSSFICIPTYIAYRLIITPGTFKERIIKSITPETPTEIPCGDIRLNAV
T1 sequence (P25103 whole entry): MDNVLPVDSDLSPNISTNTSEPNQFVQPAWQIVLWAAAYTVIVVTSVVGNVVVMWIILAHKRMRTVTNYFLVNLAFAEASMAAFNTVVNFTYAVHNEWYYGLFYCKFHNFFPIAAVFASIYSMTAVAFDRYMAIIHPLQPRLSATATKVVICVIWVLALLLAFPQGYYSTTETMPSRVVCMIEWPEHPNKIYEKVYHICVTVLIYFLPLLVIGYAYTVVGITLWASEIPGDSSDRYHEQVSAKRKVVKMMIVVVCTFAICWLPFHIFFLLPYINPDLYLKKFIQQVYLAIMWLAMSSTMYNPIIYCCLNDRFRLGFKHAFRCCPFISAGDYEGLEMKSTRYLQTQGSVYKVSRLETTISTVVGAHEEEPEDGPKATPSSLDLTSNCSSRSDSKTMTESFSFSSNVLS

IC50 [1] [nM] | IC50 [2] [nM] | activity for SERT [2] | activity for NK-1 [1] | Compound
100 to 300 |  |  |  | FC(F)(F)c1cc(COC[C@@H]2CNC[C@H]2c2c[nH]c3ccccc23)cc(C(F)(F)F)c1 (relative stereo) [Example 8, Trans-3-(4-((3,5-bis(trifluoromethyl)benzy-loxy)methyl)pyrrolidin-3-yl)-1H-indole]
 | 20 to 100 |  |  | Cc1cc(C)cc(OC[C@@H]2CNC[C@H]2c2ccccc2)c1 (relative stereo) [Example 11, Trans-3-((3,5-dimethylphenoxy)methyl)-4-phenylpyrrolidine hydrochloride]
100 to 300 |  |  |  | FC(F)(F)c1cc(OC[C@@H]2CNC[C@H]2c2c[nH]c3ccccc23)cc(C(F)(F)F)c1 (relative stereo) [Example 12, Trans-3-(4-((3,5-bis(trifluoromethyl)phenoxy)methyl)pyrrolidin-3-yl)-1H-indole]
100 to 300 | 20 to 100 | have activity | have activity | FC(F)(F)c1cc(OCC2CNCC2c2ccccc2)cc(C(F)(F)F)c1 (stereo not drawn) [Example 10, Trans-3-((3,5-bis(trifluoromethyl)phenoxy)methyl)-4-phenylpyrrolidine trifluoroacetic acid salt]

Second part, the compound before the results:

Compound | IC50 [1] [nM] | IC50 [2] [nM] | activity for SERT [2] | activity for NK-1 [1]
FC(F)(F)c1cc(COC[C@@H]2CNC[C@H]2c2ccccc2)cc(C(F)(F)F)c1 (relative stereo) [Example 1, Trans-3-((3,5-bis(trifluoromethyl)benzyloxy)methyl)-4-phenylpyrrolidine hydrochloride] | 20 to 100 |  |  | 
Fc1cc(F)cc(COC[C@@H]2CNC[C@H]2c2ccccc2)c1 (relative stereo) [Example 4, Trans-3-((3,5-difluorobenzyloxy)methyl)-4-phenylpyrrolidine] |  | 20 to 100 |  | 
FC(F)(F)c1ccccc1COC[C@@H]1CNC[C@H]1c1ccccc1 (relative stereo) [Example 5, Trans-3-((2-trifluorobenzyloxy)-methyl)-4-phenylpyrrolidine] |  | 100 to 300 |  | 
FC(F)(F)c1cccc(COC[C@@H]2CNC[C@H]2c2ccccc2)c1 (relative stereo) [Example 6, Trans-3-((3-trifluoromethylbenzyloxy)-methyl)-4-phenylpyrrolidine] |  | 20 to 100 |  | 
Cc1cc(C)cc(COCC2CNCC2c2ccccc2)c1 (stereo not drawn) [Example 2, Trans-3-((3,5-dimethylbenzyloxy)-methyl)-4-phenylpyrrolidine] | 100 to 300 | 20 to 100 | have activity | have activity
